Results: US7632918B2, “Semi-synthetic glycopeptides with antibiotic activity” (Novartis Vaccines and Diagnostics, Inc., priority 2005, dated 2009)
Converted amounts (≈) assume the structure as drawn.

Tests used:
Assay in all cases: MIC, broth microdilution in Meuller-Hinton broth (NCCLS)
533 S. epidermidis = format: cell-based, Staphylococus epidermidis; conditions: clinical isolate
Summary of the method: (§1)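 Clinical strains, sensitive or resistant to natural glycopeptides, served as test organisms; the end point was the minimal inhibitory concentration, given in μg/ml.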

568 E. faecium (GSE) = format: cell-based; conditions: glycopeptide-sensitive clinical isolate
Summary of the method: as §1

569 E. faecium (GRE) = format: cell-based; conditions: glycopeptide-resistant clinical isolate
Summary of the method: as §1

602 S. haemolyticus = format: cell-based, Staphylococus haemolyticus; conditions: clinical isolate
Summary of the method: as §1

559 E. faecalis (GSE) = format: cell-based, Enterococcus faecalis; conditions: glycopeptide-sensitive clinical isolate
Summary of the method: as §1

560 E. faecalis (GRE) = format: cell-based, Enterococcus faecalis; conditions: glycopeptide-resistant clinical isolate
Summary of the method: as §1

3797 S. aureus (GISA) = format: cell-based, Staphylococus aureus; conditions: glycopeptides-intermediate clinical isolate
Summary of the method: as §1

3798 S. aureus (GISA) = format: cell-based, Staphylococus aureus; conditions: glycopeptides-intermediate clinical isolate
Summary of the method: as §1

Row | Compound | MIC 533 S. epidermidis (533 S. epidermidis) | MIC 568 E. faecium (GSE) (568 E. faecium (GSE)) | MIC 569 E. faecium (GRE) (569 E. faecium (GRE)) | MIC 602 S. haemolyticus (602 S. haemolyticus) | MIC 559 E. faecalis (GSE) (559 E. faecalis (GSE)) | MIC 560 E. faecalis (GRE) (560 E. faecalis (GRE)) | MIC 3797 S. aureus (GISA) (3797 S. aureus (GISA)) | MIC 3798 S. aureus (GISA) (3798 S. aureus (GISA))
1 | CCCCCCCCCCN(CCCCCCCCCC)CC(=O)NC1(C)CC(OC2C(Oc3c4cc5cc3Oc3ccc(cc3Cl)C(O)C(NC(=O)C(CC(C)C)NC)C(=O)NC(CC(N)=O)C(=O)NC5C(=O)NC3C(=O)NC(C(=O)NC(C(=O)O)c5cc(O)cc(O)c5-c5cc3ccc5O)C(OC3CC(C)(N)C(O)C(C)O3)c3ccc(cc3)O4)OC(CO)C(O)C2O)OC(C)C1O (stereo not drawn) [Compound 194] | 2 µg/mL (≈ 1.06 µM) | 2 µg/mL (≈ 1.06 µM) | 8 µg/mL (≈ 4.22 µM) | 2 µg/mL (≈ 1.06 µM) | 4 µg/mL (≈ 2.11 µM) | 16 µg/mL (≈ 8.44 µM) | 8 µg/mL (≈ 4.22 µM) | 8 µg/mL (≈ 4.22 µM)
2 | CNC(CC(C)C)C(=O)NC1C(=O)NC(CC(N)=O)C(=O)NC2C(=O)NC3C(=O)NC(C(=O)NC(C(=O)O)c4cc(O)cc(O)c4-c4cc3ccc4O)C(O)c3ccc(c(Cl)c3)Oc3cc2cc(c3OC2OC(CO)C(O)C(O)C2OC2CC(C)(NC(=O)CNCc3ccc(F)cc3)C(O)C(C)O2)Oc2ccc(cc2Cl)C1O (stereo not drawn) [Compound 291] | 4 µg/mL (≈ 2.48 µM) | 1 µg/mL (≈ 0.619 µM) | 8 µg/mL (≈ 4.96 µM) | 4 µg/mL (≈ 2.48 µM) | 1 µg/mL (≈ 0.619 µM) | 8 µg/mL (≈ 4.96 µM) | 4 µg/mL (≈ 2.48 µM) | 4 µg/mL (≈ 2.48 µM)
3 | CNC(CC(C)C)C(=O)NC1C(=O)NC(CC(N)=O)C(=O)NC2C(=O)NC3C(=O)NC(C(=O)NC(C(=O)NC(C)C45CC6CC(CC(C6)C4)C5)c4cc(O)cc(O)c4-c4cc3ccc4O)C(OC3CC(C)(N)C(O)C(C)O3)c3ccc(cc3)Oc3cc2cc(c3OC2OC(CO)C(O)C(O)C2OC2CC(C)(N)C(O)C(C)O2)Oc2ccc(cc2Cl)C1O (stereo not drawn) [Compound 262] | 0.5 µg/mL (≈ 0.291 µM) | 0.5 µg/mL (≈ 0.291 µM) | 16 µg/mL (≈ 9.31 µM) | 1 µg/mL (≈ 0.582 µM) | 1 µg/mL (≈ 0.582 µM) | 16 µg/mL (≈ 9.31 µM) | 4 µg/mL (≈ 2.33 µM) | 2 µg/mL (≈ 1.16 µM)
4 | CNC(CC(C)C)C(=O)NC1C(=O)NC(CC(N)=O)C(=O)NC2C(=O)NC3C(=O)NC(C(=O)NC(C(=O)O)c4cc(O)cc(O)c4-c4cc3ccc4O)C(OC3CC(C)(N)C(O)C(C)O3)c3ccc(cc3)Oc3cc2cc(c3OC2OC(CO)C(O)C(O)C2OC2CC(C)(NC(=O)CNCc3cn(Cc4ccccc4)c4ccccc34)C(O)C(C)O2)Oc2ccc(cc2Cl)C1O (stereo not drawn) [Compound 225] | 1 µg/mL (≈ 0.545 µM) | 4 µg/mL (≈ 2.18 µM) | 16 µg/mL (≈ 8.72 µM) | 2 µg/mL (≈ 1.09 µM) | 2 µg/mL (≈ 1.09 µM) | 64 µg/mL (≈ 34.9 µM) | 4 µg/mL (≈ 2.18 µM) | 4 µg/mL (≈ 2.18 µM)
5 | CCCCOc1ccc(CNCC(=O)NC2(C)CC(OC3C(Oc4c5cc6cc4Oc4ccc(cc4Cl)C(O)C(NC(=O)C(CC(C)C)NC)C(=O)NC(CC(N)=O)C(=O)NC6C(=O)NC4C(=O)NC(C(=O)NC(C(=O)O)c6cc(O)cc(O)c6-c6cc4ccc6O)C(OC4CC(C)(N)C(O)C(C)O4)c4ccc(cc4)O5)OC(CO)C(O)C3O)OC(C)C2O)cc1 (stereo not drawn) [Compound 193] | 0.5 µg/mL (≈ 0.281 µM) | 1 µg/mL (≈ 0.563 µM) | 64 µg/mL (≈ 36 µM) | 1 µg/mL (≈ 0.563 µM) | 2 µg/mL (≈ 1.13 µM) | 64 µg/mL (≈ 36 µM) | 4 µg/mL (≈ 2.25 µM) | 4 µg/mL (≈ 2.25 µM)
6 | CNC(CC(C)C)C(=O)NC1C(=O)NC(CC(N)=O)C(=O)NC2C(=O)NC3C(=O)NC(C(=O)NC(C(=O)NCc4ccc(F)cc4)c4cc(O)cc(O)c4-c4cc3ccc4O)C(O)c3ccc(c(Cl)c3)Oc3cc2cc(c3OC2OC(CO)C(O)C(O)C2OC2CC(C)(N)C(O)C(C)O2)Oc2ccc(cc2Cl)C1O (stereo not drawn) [Compound 288] | 2 µg/mL (≈ 1.29 µM) | 0.13 µg/mL (≈ 0.0835 µM) | >64 µg/mL | 1 µg/mL (≈ 0.643 µM) | 0.13 µg/mL (≈ 0.0835 µM) | >64 µg/mL | 4 µg/mL (≈ 2.57 µM) | 4 µg/mL (≈ 2.57 µM)
7 | CNC(CC(C)C)C(=O)NC1C(=O)NC(CC(N)=O)C(=O)NC2C(=O)NC3C(=O)NC(C(=O)NC(C(=O)O)c4cc(O)cc(O)c4-c4cc3ccc4O)C(OC3CC(C)(N)C(O)C(C)O3)c3ccc(cc3)Oc3cc2cc(c3OC2OC(CO)C(O)C(O)C2OC2CC(C)(NC(=O)CNCc3ccc(-c4ccc(Cl)cc4)cc3)C(O)C(C)O2)Oc2ccc(cc2Cl)C1O (stereo not drawn) [Compound 44] | 0.5 µg/mL (≈ 0.275 µM) | 1 µg/mL (≈ 0.551 µM) | 8 µg/mL (≈ 4.41 µM) | 2 µg/mL (≈ 1.1 µM) | 1 µg/mL (≈ 0.551 µM) | 8 µg/mL (≈ 4.41 µM) | 4 µg/mL (≈ 2.2 µM) | 4 µg/mL (≈ 2.2 µM)
8 | CCCCCCCCOc1ccc(CNC(CCCN)C(=O)NC2(C)CC(OC3C(Oc4c5cc6cc4Oc4ccc(cc4Cl)C(O)C4NC(=O)C(NC(=O)C6NC(=O)C(CC(N)=O)NC(=O)C(NC(=O)C(CC(C)C)NC)C(O)c6ccc(c(Cl)c6)O5)c5ccc(O)c(c5)-c5c(O)cc(O)cc5C(C(=O)O)NC4=O)OC(CO)C(O)C3O)OC(C)C2O)cc1 (stereo not drawn) [Compound 241] | 0.5 µg/mL (≈ 0.281 µM) | 1 µg/mL (≈ 0.561 µM) | 16 µg/mL (≈ 8.98 µM) | 1 µg/mL (≈ 0.561 µM) | 1 µg/mL (≈ 0.561 µM) | 16 µg/mL (≈ 8.98 µM) | 2 µg/mL (≈ 1.12 µM) | 2 µg/mL (≈ 1.12 µM)
9 | CNC(CC(C)C)C(=O)NC1C(=O)NC(CC(N)=O)C(=O)NC2C(=O)NC3C(=O)NC(C(=O)NC(C(=O)O)c4cc(O)cc(O)c4-c4cc3ccc4O)C(OC3CC(C)(N)C(O)C(C)O3)c3ccc(cc3)Oc3cc2cc(c3OC2OC(CO)C(O)C(O)C2OC2CC(C)(NC(=O)CNCc3ccc(F)cc3)C(O)C(C)O2)Oc2ccc(cc2Cl)C1O (stereo not drawn) [Compound 293] | 4 µg/mL (≈ 2.32 µM) | 4 µg/mL (≈ 2.32 µM) | 16 µg/mL (≈ 9.29 µM) | 4 µg/mL (≈ 2.32 µM) | 4 µg/mL (≈ 2.32 µM) | 16 µg/mL (≈ 9.29 µM) | 8 µg/mL (≈ 4.64 µM) | 8 µg/mL (≈ 4.64 µM)
